The target of this experiment is α4β1 (Homo sapiens, UniProt P05556+P13612). The experiment is described as follows: α4β1 integrin inhibition, IC50. The class given is binding. Conditions: read-out: α4β1 IC50.

The structures appear in SMILES notation.

Chain of α4β1 (P13612 34-1032): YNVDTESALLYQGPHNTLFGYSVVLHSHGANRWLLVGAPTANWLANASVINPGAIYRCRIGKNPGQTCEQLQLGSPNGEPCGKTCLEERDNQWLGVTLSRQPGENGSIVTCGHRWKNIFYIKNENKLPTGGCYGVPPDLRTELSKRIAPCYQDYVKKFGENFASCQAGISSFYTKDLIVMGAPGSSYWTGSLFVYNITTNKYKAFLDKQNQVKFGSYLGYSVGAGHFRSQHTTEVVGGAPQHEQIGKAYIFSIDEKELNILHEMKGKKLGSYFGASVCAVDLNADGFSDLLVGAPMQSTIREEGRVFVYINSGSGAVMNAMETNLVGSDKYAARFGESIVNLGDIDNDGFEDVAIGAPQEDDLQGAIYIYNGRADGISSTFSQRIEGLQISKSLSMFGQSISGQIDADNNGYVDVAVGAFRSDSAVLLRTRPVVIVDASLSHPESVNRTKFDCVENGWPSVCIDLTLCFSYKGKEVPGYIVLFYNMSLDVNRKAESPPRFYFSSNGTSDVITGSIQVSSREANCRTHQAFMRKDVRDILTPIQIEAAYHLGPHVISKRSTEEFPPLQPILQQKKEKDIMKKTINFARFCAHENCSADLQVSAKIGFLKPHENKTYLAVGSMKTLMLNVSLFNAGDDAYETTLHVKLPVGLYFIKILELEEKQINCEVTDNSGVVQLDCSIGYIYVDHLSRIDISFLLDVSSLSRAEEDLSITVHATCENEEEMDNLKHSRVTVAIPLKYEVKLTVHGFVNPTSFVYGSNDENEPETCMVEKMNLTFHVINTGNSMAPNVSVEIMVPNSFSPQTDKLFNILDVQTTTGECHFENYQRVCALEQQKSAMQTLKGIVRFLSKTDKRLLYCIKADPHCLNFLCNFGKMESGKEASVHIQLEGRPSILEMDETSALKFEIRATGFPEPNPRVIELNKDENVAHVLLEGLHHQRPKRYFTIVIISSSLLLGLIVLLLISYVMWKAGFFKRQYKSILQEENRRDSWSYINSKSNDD
Chain of α4β1 (P05556 21-798): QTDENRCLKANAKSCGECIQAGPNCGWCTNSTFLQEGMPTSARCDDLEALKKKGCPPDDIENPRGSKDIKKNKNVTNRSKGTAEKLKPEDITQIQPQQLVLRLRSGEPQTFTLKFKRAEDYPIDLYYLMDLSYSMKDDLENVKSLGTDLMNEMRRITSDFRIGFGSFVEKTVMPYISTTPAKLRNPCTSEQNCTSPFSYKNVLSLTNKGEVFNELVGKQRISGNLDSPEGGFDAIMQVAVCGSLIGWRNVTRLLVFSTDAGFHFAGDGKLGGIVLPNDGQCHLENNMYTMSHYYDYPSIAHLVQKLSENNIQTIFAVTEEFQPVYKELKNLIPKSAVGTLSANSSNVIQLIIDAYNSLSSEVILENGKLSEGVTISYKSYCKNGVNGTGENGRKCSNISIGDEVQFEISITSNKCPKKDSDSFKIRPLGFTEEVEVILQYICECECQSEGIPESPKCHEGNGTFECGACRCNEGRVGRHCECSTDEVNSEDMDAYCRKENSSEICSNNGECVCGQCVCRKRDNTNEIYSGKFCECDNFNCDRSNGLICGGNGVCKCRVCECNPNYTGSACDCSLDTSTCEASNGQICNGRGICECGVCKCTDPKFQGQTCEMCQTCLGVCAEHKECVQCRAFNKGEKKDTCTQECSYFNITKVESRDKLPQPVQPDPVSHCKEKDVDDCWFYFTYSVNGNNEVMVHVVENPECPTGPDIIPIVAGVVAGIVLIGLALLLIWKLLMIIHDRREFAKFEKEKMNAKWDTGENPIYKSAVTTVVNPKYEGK

As to `Cc1ccc([C@H](CC(=O)O)NC(=O)Nc2c(O)ccn(C)c2=O)cc1-c1c(C)cccc1C` [1-545, sodium (S)-3-(3-(1-methyl-4-oxido-2-oxo-1,2-dihydropyridin-3-yl)ureido)-3-(2′,6,6′-trimethylbiphenyl-3-yl)propanoate], the half-maximal inhibitory concentration (IC50) – broadly, the concentration that inhibits the measured activity by half – was less than 20 nM.

For the compound `Cn1ccc(O)c(NC(=O)N[C@@H](CC(=O)O)c2ccc(F)c(-c3c(F)cccc3F)c2)c1=O` [1-546, sodium (S)-3-(3-(1-methyl-4-oxido-2-oxo-1,2-dihydropyridin-3-yl)ureido)-3-(2′,6,6′-trifluorobiphenyl-3-yl)propanoate], the IC50 is less than 20 nM.

As for `COc1cccc(-c2cc([C@H](CC(=O)O)NC(=O)Nc3c(O)ccn(C)c3=O)ccc2F)c1` [1-547, sodium (S)-3-(6-fluoro-3′-methoxybiphenyl-3-yl)-3-(3-(1-methyl-4-oxido-2-oxo-1,2-dihydropyridin-3-yl)ureido)propanoate], the IC50 is less than 20 nM.

Turning to `Cn1cc(-c2cccc([C@H](CC(=O)O)NC(=O)Nc3c(O)ccn(C)c3=O)c2)cn1` [1-548, sodium (S)-3-(3-(1-methyl-1H-pyrazol-4-yl)phenyl)-3-(3-(1-methyl-4-oxido-2-oxo-1,2-dihydropyridin-3-yl)ureido)propanoate], the IC50 is less than 20 nM.

Regarding `Cn1ncc(O)c(NC(=O)N[C@@H](CC(=O)O)c2cccc(-c3ccc(F)cc3F)c2)c1=O` [1-549, sodium (S)-3-(2′,4′-difluorobiphenyl-3-yl)-3-(3-(2-methyl-5-oxido-3-oxo-2,3-dihydropyridazin-4-yl)ureido)propanoate], the half-maximal inhibitory concentration (IC50) is less than 20 nM.

`COc1cccc(-c2cc([C@H](CC(=O)O)NC(=O)Nc3c(O)cc(C)n(C)c3=O)ccc2OC)c1` [1-551, sodium (S)-3-(3′,6-dimethoxybiphenyl-3-yl)-3-(3-(1,6-dimethyl-4-oxido-2-oxo-1,2-dihydropyridin-3-yl)ureido)propanoate]: the IC50 is less than 20 nM.

Regarding `Cc1cc(O)c(NC(=O)N[C@@H](CC(=O)O)c2cc(-c3ccc(F)cc3F)cs2)c(=O)n1C` [1-552, sodium (S)-3-(4-(2,4-difluorophenyl)thiophen-2-yl)-3-(3-(1,6-dimethyl-4-oxido-2-oxo-1,2-dihydropyridin-3-yl)ureido)propanoate], the IC50 was less than 20 nM.

In the case of `COc1cccc(-c2cccc([C@H](CC(=O)O)NC(=O)Nc3c(O)cc(C)n(C)c3=O)c2)c1` [1-553, sodium (S)-3-(3-(1,6-dimethyl-4-oxido-2-oxo-1,2-dihydropyridin-3-yl)ureido)-3-(3′-methoxybiphenyl-3-yl)propanoate], the IC50 is less than 20 nM.

For the compound `COc1ccc([C@H](CC(=O)O)NC(=O)Nc2c(O)cc(C)n(C)c2=O)cc1-c1cccc(OC(F)(F)F)c1` [1-554, sodium (S)-3-(3-(1,6-dimethyl-4-oxido-2-oxo-1,2-dihydropyridin-3-yl)ureido)-3-(6-methoxy-3′-(trifluoromethoxy)biphenyl-3-yl)propanoate], the IC50 was less than 20 nM.

As to `Cc1ccc([C@H](CC(=O)O)NC(=O)Nc2c(O)ccn(C)c2=O)cc1-c1cccc(Cl)c1` [1-555, sodium (S)-3-(3′-chloro-6-methylbiphenyl-3-yl)-3-(3-(1-methyl-4-oxido-2-oxo-1,2-dihydropyridin-3-yl)ureido)propanoate], the IC50 was less than 20 nM.

For `Cc1cc(O)c(NC(=O)N[C@@H](CC(=O)O)c2cccc(-c3cccc(Cl)c3)c2)c(=O)n1C` [1-556, sodium (S)-3-(3′-chlorobiphenyl-3-yl)-3-(3-(1,6-dimethyl-4-oxido-2-oxo-1,2-dihydropyridin-3-yl)ureido)propanoate], the IC50 was less than 20 nM.

Regarding `Cc1cc(O)c(NC(=O)N[C@@H](CC(=O)O)c2cccc(-c3ccc(F)cc3F)c2)c(=O)[nH]1` [1-557, sodium (S)-3-(2′,4′-difluorobiphenyl-3-yl)-3-(3-(6-methyl-4-oxido-2-oxo-1,2-dihydropyridin-3-yl)ureido)propanoate], the concentration for half-maximal inhibition (IC50) is more than 200 nM.

On to `COc1cc(-c2ccccc2)cc([C@H](CC(=O)O)NC(=O)Nc2c(O)ccn(C)c2=O)c1` [1-558, sodium (S)-3-(5-methoxybiphenyl-3-yl)-3-(3-(1-methyl-4-oxido-2-oxo-1,2-dihydropyridin-3-yl)ureido)propanoate], for which the 50% inhibitory concentration (IC50) was less than 20 nM.

On to `Cn1ccc(O)c(NC(=O)N[C@@H](CC(=O)O)c2cccc(-c3ccoc3)c2)c1=O` [1-559, sodium (S)-3-(3-(furan-3-yl)phenyl)-3-(3-(1-methyl-4-oxido-2-oxo-1,2-dihydropyridin-3-yl)ureido)propanoate], for which the half-inhibitory concentration (IC50) is less than 20 nM.

As for `COc1cccc(-c2ccc([C@H](CC(=O)O)NC(=O)Nc3c(O)ccn(C)c3=O)s2)c1` [1-563, sodium (S)-3-(5-(3-methoxyphenyl)thiophen-2-yl)-3-(3-(1-methyl-4-oxido-2-oxo-1,2-dihydropyridin-3-yl)ureido)propanoate], the concentration for half-maximal inhibition (IC50) is less than 20 nM.

On to `COc1cccc(-c2cc(OC)cc([C@H](CC(=O)O)NC(=O)Nc3c(O)ccn(C)c3=O)c2)c1` [1-564, sodium (S)-3-(3′,5-dimethoxybiphenyl-3-yl)-3-(3-(1-methyl-4-oxido-2-oxo-1,2-dihydropyridin-3-yl)ureido)propanoate], for which the IC50 is less than 20 nM.

On to `COc1cc(-c2cccc(OC(F)(F)F)c2)cc([C@H](CC(=O)O)NC(=O)Nc2c(O)ccn(C)c2=O)c1` [1-565, sodium (S)-3-(5-methoxy-3′-(trifluoromethoxy)biphenyl-3-yl)-3-(3-(1-methyl-4-oxido-2-oxo-1,2-dihydropyridin-3-yl)ureido)propanoate], for which the IC50 was less than 20 nM.

`COc1cc(-c2ccc(F)cc2F)cc([C@H](CC(=O)O)NC(=O)Nc2c(O)ccn(C)c2=O)c1` [1-566, sodium (S)-3-(2′,4′-difluoro-5-methoxybiphenyl-3-yl)-3-(3-(1-methyl-4-oxido-2-oxo-1,2-dihydropyridin-3-yl)ureido)propanoate]: the IC50 is less than 20 nM.

Take `COc1cccc(-c2cc(OC)cc([C@H](CC(=O)O)NC(=O)Nc3c(O)cc(C)n(C)c3=O)c2)c1` [1-567, sodium (S)-3-(3′,5-dimethoxybiphenyl-3-yl)-3-(3-(1,6-dimethyl-4-oxido-2-oxo-1,2-dihydropyridin-3-yl)ureido)propanoate]: the IC50 was less than 20 nM.

For `COc1cc(-c2cccc(OC(F)(F)F)c2)cc([C@H](CC(=O)O)NC(=O)Nc2c(O)cc(C)n(C)c2=O)c1` [1-568, sodium (S)-3-(3-(1,6-dimethyl-4-oxido-2-oxo-1,2-dihydropyridin-3-yl)ureido)-3-(5-methoxy-3′-(trifluoromethoxy)biphenyl-3-yl)propanoate], the IC50 was less than 20 nM.

`COc1cccc(-c2cc([C@H](CC(=O)O)NC(=O)Nc3c(O)cc(C)n(C)c3=O)ccc2C)c1` [1-569, sodium (S)-3-(3-(1,6-dimethyl-4-oxido-2-oxo-1,2-dihydropyridin-3-yl)ureido)-3-(3′-methoxy-6-methylbiphenyl-3-yl)propanoate]: the IC50 was less than 20 nM.

With `Cn1ccc(O)c(NC(=O)N[C@@H](CC(=O)O)c2cc(-c3ccccc3)ccc2F)c1=O` [1-570, sodium (S)-3-(4-fluorobiphenyl-3-yl)-3-(3-(1-methyl-4-oxido-2-oxo-1,2-dihydropyridin-3-yl)ureido)propanoate], the IC50 is less than 20 nM.

With `Cn1ccc(O)c(NC(=O)N[C@@H](CC(=O)O)c2cccc(-c3ccccc3)n2)c1=O` [1-571, sodium (S)-3-(3-(1-methyl-4-oxido-2-oxo-1,2-dihydropyridin-3-yl)ureido)-3-(6-phenylpyridin-2-yl)propanoate], the IC50 is less than 20 nM.

As to `Cc1cc(-c2c(C)cccc2C)cc([C@H](CC(=O)O)NC(=O)Nc2c(O)ccn(C)c2=O)c1` [1-573, sodium (S)-3-(3-(1-methyl-4-oxido-2-oxo-1,2-dihydropyridin-3-yl)ureido)-3-(2′,5,6′-trimethylbiphenyl-3-yl)propanoate], the IC50 is less than 20 nM.

As to `Cc1cc(-c2ccc(F)cc2F)cc([C@H](CC(=O)O)NC(=O)Nc2c(O)ccn(C)c2=O)c1` [1-574, sodium (S)-3-(2′,4′-difluoro-5-methylbiphenyl-3-yl)-3-(3-(1-methyl-4-oxido-2-oxo-1,2-dihydropyridin-3-yl)ureido)propanoate], the half-maximal inhibitory concentration (IC50) is less than 20 nM.

For `Cc1cc(-c2ccc(F)cc2F)cc([C@H](CC(=O)O)NC(=O)Nc2c(O)cc(C)n(C)c2=O)c1` [1-575, sodium (S)-3-(2′,4′-difluoro-5-methylbiphenyl-3-yl)-3-(3-(1,6-dimethyl-4-oxido-2-oxo-1,2-dihydropyridin-3-yl)ureido)propanoate], the IC50 is less than 20 nM.

Regarding `Cc1ccc([C@H](CC(=O)O)NC(=O)Nc2c(O)ccn(C)c2=O)cc1-c1cccc(OC(F)(F)F)c1` [1-576, sodium (S)-3-(6-methyl-3′-(trifluoromethoxy)biphenyl-3-yl)-3-(3-(1-methyl-4-oxido-2-oxo-1,2-dihydropyridin-3-yl)ureido)propanoate], the IC50 was less than 20 nM.

`Cc1ccc([C@H](CC(=O)O)NC(=O)Nc2c(O)cc(C)n(C)c2=O)cc1-c1cccc(OC(F)(F)F)c1` [1-577, sodium (S)-3-(3-(1,6-dimethyl-4-oxido-2-oxo-1,2-dihydropyridin-3-yl)ureido)-3-(6-methyl-3′-(trifluoromethoxy)biphenyl-3-yl)propanoate]: the half-inhibitory concentration (IC50) was less than 20 nM.

With `Cc1cccc(C)c1-c1cc([C@H](CC(=O)O)NC(=O)Nc2c(O)cc(C)n(C)c2=O)ccc1F` [1-578, sodium (S)-3-(3-(1,6-dimethyl-4-oxido-2-oxo-1,2-dihydropyridin-3-yl)ureido)-3-(6-fluoro-2′,6′-dimethylbiphenyl-3-yl)propanoate], the IC50 is less than 20 nM.

On to `COc1cc(-c2ccc(F)cc2F)cc([C@H](CC(=O)O)NC(=O)Nc2c(O)cc(C)n(C)c2=O)c1` [1-581, sodium (S)-3-(2′,4′-difluoro-5-methoxybiphenyl-3-yl)-3-(3-(1,6-dimethyl-4-oxido-2-oxo-1,2-dihydropyridin-3-yl)ureido)propanoate], for which the half-inhibitory concentration (IC50) was less than 20 nM.

In the case of `Cc1cscc1-c1ccc([C@H](CC(=O)O)NC(=O)Nc2c(O)ccn(C)c2=O)s1` [1-584, sodium (S)-3-(4′-methyl-2,3′-bithiophen-5-yl)-3-(3-(1-methyl-4-oxido-2-oxo-1,2-di hydropyridin-3-yl)ureido)propanoate], the half-inhibitory concentration (IC50) was less than 20 nM.

For the origin of these results see US10875875B2, “Propionic acid derivatives and methods of use thereof” (Aviara Pharmaceuticals, Inc., priority 2017, dated 2020).
